Numbers after ± are expanded uncertainties.
Experiments:
[1] = for viscosity: Liquid
[2] = xn = mol fraction of the nth substance listed; conditions: for viscosity: Liquid

OCCO [1,2-ethanediol]
[1]
Conditions | surface tension liquid-gas [mN/m] | viscosity [mPa·s]
308.15 K | 50.11 ± 1.1 | 9.212 ± 0.45
313.15 K | 48.73 ± 1.1 | 7.961 ± 0.4
318.15 K | 47.25 ± 1.1 | 6.293 ± 0.34
323.15 K | 46.41 ± 1.1 | 5.447 ± 0.3

OCCO [1,2-ethanediol] + O
[2]
Conditions | surface tension liquid-gas, 308.15 K [mN/m] | surface tension liquid-gas, 313.15 K [mN/m] | surface tension liquid-gas, 318.15 K [mN/m] | surface tension liquid-gas, 323.15 K [mN/m] | viscosity, 308.15 K [mPa·s] | viscosity, 313.15 K [mPa·s] | viscosity, 318.15 K [mPa·s] | viscosity, 323.15 K [mPa·s]
x1 = 0.0145 | 69.73 ± 1.4 | 66.55 ± 1.4 | 65.92 ± 1.4 | 63.24 ± 1.3 | 0.7543 ± 0.05 | 0.7037 ± 0.047 | 0.6336 ± 0.043 | 0.5878 ± 0.041
x1 = 0.0312 | 67.83 ± 1.4 | 65.58 ± 1.4 | 63.92 ± 1.3 | 60.58 ± 1.3 | 0.8381 ± 0.055 | 0.764 ± 0.051 | 0.6785 ± 0.046 | 0.6321 ± 0.043
x1 = 0.0484 | 66.13 ± 1.4 | 64.09 ± 1.3 | 62.24 ± 1.3 | 59.62 ± 1.3 | 0.9241 ± 0.06 | 0.8372 ± 0.055 | 0.7424 ± 0.05 | 0.6876 ± 0.046
x1 = 0.0686 | 64.57 ± 1.3 | 62.51 ± 1.3 | 60.57 ± 1.3 | 57.96 ± 1.2 | 1.021 ± 0.065 | 0.9256 ± 0.06 | 0.7995 ± 0.053 | 0.7433 ± 0.05
x1 = 0.0883 | 63.27 ± 1.3 | 61.32 ± 1.3 | 59.21 ± 1.3 | 56.77 ± 1.2 | 1.133 ± 0.071 | 1.017 ± 0.065 | 0.8755 ± 0.057 | 0.8133 ± 0.053
x1 = 0.1107 | 62.14 ± 1.3 | 60.32 ± 1.3 | 58.41 ± 1.3 | 55.75 ± 1.2 | 1.266 ± 0.079 | 1.127 ± 0.071 | 0.9589 ± 0.062 | 0.8853 ± 0.058
x1 = 0.1621 | 60.02 ± 1.3 | 58.1 ± 1.2 | 56.25 ± 1.2 | 54.15 ± 1.2 | 1.574 ± 0.096 | 1.405 ± 0.087 | 1.184 ± 0.074 | 1.082 ± 0.068
x1 = 0.2247 | 57.51 ± 1.2 | 55.92 ± 1.2 | 54.36 ± 1.2 | 52.15 ± 1.2 | 2.036 ± 0.12 | 1.772 ± 0.11 | 1.48 ± 0.091 | 1.339 ± 0.083
x1 = 0.3032 | 56.03 ± 1.2 | 54.45 ± 1.2 | 52.66 ± 1.2 | 50.52 ± 1.1 | 2.662 ± 0.16 | 2.298 ± 0.14 | 1.888 ± 0.11 | 1.679 ± 0.1
x1 = 0.4035 | 54.03 ± 1.2 | 52.41 ± 1.2 | 50.65 ± 1.1 | 49.12 ± 1.1 | 3.512 ± 0.2 | 3.017 ± 0.18 | 2.468 ± 0.15 | 2.179 ± 0.13
x1 = 0.5366 | 52.47 ± 1.2 | 50.7 ± 1.1 | 49.34 ± 1.1 | 47.88 ± 1.1 | 4.7 ± 0.27 | 4.054 ± 0.23 | 3.283 ± 0.19 | 2.874 ± 0.17
x1 = 1 | 50.11 ± 1.1 | 48.73 ± 1.1 | 47.25 ± 1.1 | 46.41 ± 1.1 | 9.212 ± 0.45 | 7.961 ± 0.4 | 6.293 ± 0.34 | 5.447 ± 0.3

O [water] + OCCO
[2], x2 = 0
Conditions | surface tension liquid-gas [mN/m] | viscosity [mPa·s]
308.15 K | 71.02 ± 1.4 | 0.721 ± 0.048
313.15 K | 69.69 ± 1.4 | 0.6532 ± 0.045
318.15 K | 67.68 ± 1.4 | 0.59 ± 0.041
323.15 K | 66.12 ± 1.4 | 0.55 ± 0.039

Source: the NIST ThermoML archive (doi:10.1021/je800271e)
